Measurements: article PMC9501445 (2022)

Test system: 22GT (DNA, G4) GGGTTAGGGTTAGGGTTAGGGT
Experiment: ITC, global fit of coupled folding/binding model
Conditions: 100 mM K+; 1 mM cacodylate, 0.02 mM EDTA, pH 6.9, 3% DMSO, 25 °C; site 1 of 2 (intermediate I)

C[n+]1cc(NC(=O)c2cccc(C(=O)Nc3cc4ccccc4[n+](C)c3)n2)cc2ccccc21
ΔG°: -9.6 ± 0.6 kcal/mol
